Measured values reported in patent US20090123581A1, “COLLAGEN CROSS-LINKING AGENTS ON DENTAL RESTORATIVE TREATMENT AND PREVENTIVE DENTISTRY” (THE BOARD OF TRUSTEES OF THE UNIVERSITY OF ILLINOIS, priority 2006, published 2009).

Columns and labels:
[1] = Ultimate tensile strength (UTS) of undemineralized (mineralized) dentin after cross-linker treatment (Example 1); design: species or system human; details: 0.625% GE or 5% GD; for Ultimate tensile strength, mean: pH 7.4
Description: (§1) Fixation Processes: Ten sound freshly extracted human molars were used in this study. The teeth were thawed, cleaned of adhering soft tissues, and the occlusal surfaces were ground flat with #320 grit Silicon Carbide paper under running water to remove part of the enamel. Flattening of the occlusal surface by removal of the cusps enables accurate sectioning of samples in beam shape. Teeth were sectioned into 0.5±0.1 by 0.5±0.1 mm thick beams (n=20 beams per tooth) with a slow speed diamond wafering blade (Buehler-Series 15LC Diamond, Lake Bluff, Ill., USA) under constant water coolant (FIG. 1A).
(§2) The slabs were randomly divided into two groups: 1) undemineralized dentin and 2) demineralized dentin (FIG. 1A). In Group 2, dentin beams were immersed in 10% phosphoric acid solution (Fisher Scientific, New Jersey, N.J.) for a period of 5 hours. X-rays were taken from the specimens to verify complete tissue demineralization. Specimens were thoroughly rinsed with distilled water for 10 minutes to remove any residue of the phosphoric acid.
(§3) Specimens from groups 1 and 2 were subdivided according to the dentin treatment (FIG. 1B). In Treatment A, specimens were immersed in PBS solution (pH: 7.4) as a control. In Treatment B, specimens were immersed in 0.5% Proanthocyanidin (MegaNatural—Polyphenolics Ind.) PBS solution (PA) at a pH of 7.4. In Treatment C, specimens were immersed in 0.625% Genipin (Wako Pure Chemical Ind.) PBS solution (GE) at a pH of 7.4. In Treatment D, specimens were immersed in 5% glutaraldehyde solution (GD) (Fisher Scientific, New Jersey, N.J.) at a pH of 7.4. Specimens were kept in their respective solutions for 4 and 40 hours at room temperature. After the incubation periods, specimens were thoroughly rinsed with distilled and deionized water to remove any remains of cross-linking agents and buffer.
(§4) UTS testing: For UTS evaluation, the specimens were glued with a cyanoacrylate adhesive (Zapit—Dental Ventures of America Inc., Corona, Calif.) to a Ciucchi's jig, which was mounted on a universal testing machine (EZ Test, Shimazu Co., Kyoto, Japan) and subjected to microtensile testing at a crosshead speed of 1 mm/min (FIG. 1C). Means and standard deviations were calculated and expressed in microtensile bond strengths (MPa). Statistical analysis was performed using a two-way ANOVA and Fisher's PLSD tests (p<0.05).

[2] = Ultimate tensile strength (UTS) of demineralized dentin after cross-linker treatment (Example 1); design: species or system human; details: for Ultimate tensile strength, mean: pH 7.4
Description: as §1, §2, §3, §4

COC(=O)C1=CO[C@@H](O)[C@@H]2C(CO)=CC[C@H]12 [GE, genipin]
Ultimate tensile strength, mean ([1]; 4 hours in 0.5% PA): 84.2 MPa | Ultimate tensile strength, mean ([1]; 40 hours in 0.5% PA): 94.2 MPa | Ultimate tensile strength, pooled data ([1]; pooled over 4 and 40 hours, 0.5% PA): 89.2 A MPa | Ultimate tensile strength, mean ([2]; 4 hours in 0.5% PA, 0.625% GE or 5% GD): 11.0 MPa | Ultimate tensile strength, mean ([2]; 40 hours in 0.5% PA, 0.625% GE or 5% GD): 18.2 MPa | increase in the UTS values ([2]; 40 hours treatment, versus control): approximately 80% | Ultimate tensile strength, pooled data ([2]; pooled over 4 and 40 hours, 0.5% PA, 0.625% GE or 5% GD): 14.6 B MPa | UTS values compared to the control group (statistics) ([2]; two-way ANOVA, Fisher's PLSD): statistically significant increase
